Reference: patent US11066445B2, “Immunomodulators acting as antagonists of PD-1” (Bristol-Myers Squibb Company, priority 2017, dated 2021)
Like-named read-outs stand apart in the source and are kept apart here. Starred links: 1 amine or outer side, 2 acyl side, 3 side chain; linkers in the order of their positions; H or OH if unused. Positions of bridges follow the written chain, without caps; N, C: chain ends. Non-standard residues stand in square brackets, D forms with d. Residues, ends and D or L forms follow the SMILES beside them. *: point of attachment. X3 = O=C(O)CCCCCCCCCCCCCCCCC(=O)N[C@@H](CCC(=O)NCCCOCCOCCOCCCN*)C(=O)O; Trp(1-CH2CONHSO2Me) = CS(=O)(=O)NC(=O)Cn1cc(C[C@H](N)C(=O)O)c2ccccc21; X1 = O=C(O)CCCCCCCCCCCCCCC(=O)N[C@@H](CCC(=O)NCCCOCCOCCOCCCN*)C(=O)O; Trp(4-aza,1-CH2COOH) = N[C@@H](Cc1cn(CC(=O)O)c2cccnc12)C(=O)O; Trp(7-aza,1-CH2COOH) = N[C@@H](Cc1cn(CC(=O)O)c2ncccc12)C(=O)O; Trp(1-CH2CO2Me) = COC(=O)Cn1cc(C[C@H](N)C(=O)O)c2ccccc21; X6 = COc1ccc2c(c1)c(C[C@H](N[*:1])C(=O)[*:2])cn2CC(=O)O; X4 = O=C(O)Cn1nc(C[C@H](N[*:1])C(=O)[*:2])c2ccccc21; d(cisHyp) = O=C(O)[C@H]1C[C@@H](O)CN1; Hyp = O=C(O)[C@@H]1C[C@@H](O)CN1; NMeNle = CCCC[C@H](NC)C(=O)O; NMeA = CN[C@@H](C)C(=O)O; Dab = NCC[C@H](N)C(=O)O; Dap = NC[C@H](N)C(=O)O; Sar = CNCC(=O)O

Target: T1, PD-1-Ig binding to PD-L1-TVMV-His (PD-L1-His) (Homo sapiens, UniProt Q9NZQ7)
T1 construct: hPDL1(19-239)-TVMV-His; TVMV protease cleavage site (C); made in house; host or cells: HEK293T cells
T1 sequence (Q9NZQ7 with tags, fused parts or gaps): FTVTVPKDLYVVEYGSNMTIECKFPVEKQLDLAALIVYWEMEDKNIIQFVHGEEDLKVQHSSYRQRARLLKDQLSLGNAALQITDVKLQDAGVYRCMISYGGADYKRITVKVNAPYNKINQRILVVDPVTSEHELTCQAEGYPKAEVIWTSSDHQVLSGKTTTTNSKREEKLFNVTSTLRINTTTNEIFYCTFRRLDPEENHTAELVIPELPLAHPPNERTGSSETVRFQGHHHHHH
Assay: PD-1/PD-L1 Homogenous Time-Resolved Fluorescence (HTRF) binding assay
Conditions: PD-1-Ig (20 nM) / PD-L1-His (10 nM), read-out: LE HTRF hPD1 hPDL1 IC50
From the text: Methods for Testing the Ability of Macrocyclic Peptides to Compete for the Binding of Pd-1 to Pd-L1 Using Homogenous Time-Resolved Fluorescence (HTRF) Binding Assays
The ability of the macrocyclic peptides of the present disclosure to bind to PD-L1 was investigated using a PD-1/PD-L1 Homogenous Time-Resolved Fluorescence (HTRF) binding assay.
Homogenous Time-Resolved Fluorescence (HTRF) Assays of Binding of Soluble PD-1 to Soluble PD-L1. Soluble PD-1 and soluble PD-L1 refers to proteins with carboxyl-end truncations that remove the transmembrane-spanning regions and are fused to heterologous sequences, specifically the Fc portion of the human immunoglobuling G sequence (Ig) or the hexahistidine epitope tag (His). All binding studies were performed in an HTRF assay buffer consisting of dPBS supplemented with 0.1% (w/v) bovine serum albumin and 0.05% (v/v) Tween-20. For the PD-1-Ig/PD-L1-His binding assay, inhibitors were pre-incubated with PD-L1-His (10 nM final) for 15 m in 4 μl of assay buffer, followed by addition of PD-1-Ig (20 nM final) in 1 μl of assay buffer and further incubation for 15 m. PD-L1 fusion proteins from either human, cynomologous macaques, mouse, or other species were used. HTRF detection was achieved using europium crypate-labeled anti-Ig monoclonal antibody (1 nM final) and allophycocyanin (APC) labeled anti-His monoclonal antibody (20 nM final). Antibodies were diluted in HTRF detection buffer and 5 μl was dispensed on top of binding reaction. The reaction was allowed to equilibrate for 30 minutes and signal (665 nm/620 nm ratio) was obtained using an EnVision fluorometer. Additional binding assays were established between PD-1-Ig/PD-L2-His (20 and 5 nM, respectively), CD80-His/PD-L1-Ig (100 and 10 nM, respectively) and CD80-His/CTLA4-Ig (10 and 5 nM, respectively). Binding/competition studies between biotinylated Compound No. 71 and human PD-L1-His were performed as follows. Macrocyclic peptide inhibitors were pre-incubated with PD-L1-His (10 nM final) for 60 minutes in 4 μl of assay buffer followed by addition of biotinylated Compound No. 71 (0.5 nM final) in 1 μl of assay buffer. Binding was allowed to equilibrate for 30 minutes followed by addition of europium crypated labeled Streptavidin (2.5 pM final) and APC-labeled anti-His (20 nM final) in 5 μl of HTRF buffer. The reaction was allowed to equilibrate for 30 m and signal (665 nm/620 nm ratio) was obtained using an EnVision fluorometer.
Recombinant Proteins. Carboxyl-truncated human PD-1 (amino acids 25-167) with a C-terminal human Ig epitope tag [hPD-1 (25-167)-3S-IG] and human PD-L1 (amino acids 18-239) with a C-terminal His epitope tag [hPD-L1(19-239)-tobacco vein mottling virus protease cleavage site (TVMV)-His] were expressed in HEK293T cells and purified sequentially by recombinant Protein A affinity chromatography and size exclusion chromatography. Human PD-L2-His (Sino Biologicals), CD80-His (Sino Biologicals), CTLA4-Ig (RnD Systems) were all obtained through commercial sources.
Ranges are as follows: A=0.010-0.060 μM; B=0.0011-0.009 μM; C=0.0003-0.0010 μM.

| SMILES | IC50 (numeric values) [nM] | IC50 (range classes) [nM] |
| --- | --- | --- |
| CCCC[C@H]1C(=O)N(C)[C@@H](CCCC)C(=O)N[C@@H](CC(C)C)C(=O)N[C@H](C(=O)N[C@@H](Cc2cn(CCOCCOCCOCCOCCOCCOCCOCCOCCOCCOCCOCCNC(=O)CC[C@H](NC(=O)CCCCCCCCCCCCCCCCC(=O)O)C(=O)O)nn2)C(=O)O)CSCC(=O)N[C@@H](Cc2ccc(O)cc2)C(=O)N(C)[C@@H](C)C(=O)N[C@@H](CC(N)=O)C(=O)N2CCC[C@H]2C(=O)N[C@@H](CN)C(=O)N[C@@H](CC(C)C)C(=O)N2C[C@H](O)C[C@H]2C(=O)N[C@@H](Cc2c[nH]c3ccccc23)C(=O)N[C@@H](CCN)C(=O)N[C@@H](Cc2nn(CC(=O)O)c3ccccc23)C(=O)N1C [Example 22] | 0.6 | – |
| CCCC[C@H]1C(=O)N(C)[C@@H](CCCC)C(=O)N[C@@H](CC(C)C)C(=O)N[C@H](C(=O)NCC(=O)N[C@@H](Cc2cn(CCOCCOCCOCCOCCOCCOCCOCCOCCOCCOCCOCCNC(=O)CC[C@H](NC(=O)CCCCCCCCCCCCCCCCC(=O)O)C(=O)O)nn2)C(=O)O)CSCC(=O)N[C@@H](Cc2ccc(O)cc2)C(=O)N(C)[C@@H](C)C(=O)N[C@@H](CC(N)=O)C(=O)N2CCC[C@H]2C(=O)N[C@@H](CN)C(=O)N[C@@H](CC(C)C)C(=O)N2C[C@H](O)C[C@H]2C(=O)N[C@@H](Cc2c[nH]c3ccccc23)C(=O)N[C@@H](CCN)C(=O)N[C@@H](Cc2cn(CC(=O)O)c3ncccc23)C(=O)N1C [Example 31] | – | 0.3 to 1 |
| CCCC[C@H]1C(=O)N(C)[C@@H](CCCC)C(=O)N[C@@H](CC(C)C)C(=O)N[C@H](C(=O)NCC(=O)N[C@@H](CC(=O)NCCCOCCOCCOCCCNC(=O)CC[C@H](NC(=O)CCCCCCCCCCCCCCCCC(=O)O)C(=O)O)C(=O)O)CSCC(=O)N[C@@H](Cc2ccc(O)cc2)C(=O)N(C)[C@@H](C)C(=O)N[C@@H](CC(N)=O)C(=O)N2CCC[C@H]2C(=O)N[C@@H](CN)C(=O)N[C@@H](CC(C)C)C(=O)N2C[C@H](O)C[C@H]2C(=O)N[C@@H](Cc2c[nH]c3ccccc23)C(=O)N[C@@H](CCN)C(=O)N[C@@H](Cc2cn(CC(=O)NS(C)(=O)=O)c3ccccc23)C(=O)N1C [Example 1] ({CH2CO}-Y[NMeA]NP[Dap]L[Hyp]W[Dab][Trp(1-CH2CONHSO2Me)][NMeNle][NMeNle]LCGD(X3)-OH; thioether N-14) | 1.2 | – |
| CCCC[C@H]1C(=O)N(C)[C@@H](CCCC)C(=O)N[C@@H](CC(C)C)C(=O)N[C@H](C(=O)NCC(=O)N[C@@H](CC(=O)NCCCOCCOCCOCCCNC(=O)CC[C@H](NC(=O)CCCCCCCCCCCCCCCCC(=O)O)C(=O)O)C(=O)O)CSCC(=O)N[C@@H](Cc2ccc(O)cc2)C(=O)N(C)[C@@H](C)C(=O)N[C@@H](CC(N)=O)C(=O)N2CCC[C@H]2C(=O)N[C@@H](CN)C(=O)N[C@@H](CC(C)C)C(=O)N2C[C@H](O)C[C@H]2C(=O)N[C@@H](Cc2c[nH]c3ccccc23)C(=O)N[C@@H](CCN)C(=O)N[C@@H](Cc2nn(CC(=O)O)c3ccccc23)C(=O)N1C [Example 5] ({CH2CO}-Y[NMeA]NP[Dap]L[Hyp]W[Dab][X4][NMeNle][NMeNle]LCGD(X3)-OH; thioether N-14) | – | 1.1 to 9 |
| CCCC[C@H]1C(=O)N(C)[C@@H](CCCC)C(=O)N[C@@H](CC(C)C)C(=O)N[C@H](C(=O)NCC(=O)N[C@@H](CC(=O)NCCCOCCOCCOCCCNC(=O)CC[C@H](NC(=O)CCCCCCCCCCCCCCCCC(=O)O)C(=O)O)C(=O)O)CSCC(=O)N[C@@H](Cc2ccc(O)cc2)C(=O)N(C)[C@@H](C)C(=O)N[C@@H](CC(N)=O)C(=O)N(C)CC(=O)N[C@@H](CN)C(=O)N[C@@H](CC(C)C)C(=O)N2C[C@H](O)C[C@@H]2C(=O)N[C@@H](Cc2c[nH]c3ccccc23)C(=O)N[C@@H](CCN)C(=O)N[C@@H](Cc2cn(CC(=O)O)c3cccnc23)C(=O)N1C [Example 8] ({CH2CO}-Y[NMeA]N[Sar][Dap]L[d(cisHyp)]W[Dab][Trp(4-aza,1-CH2COOH)][NMeNle][NMeNle]LCGD(X3)-OH; thioether N-14) | – | 1.1 to 9 |
| CCCC[C@H]1C(=O)N(C)[C@@H](CCCC)C(=O)N[C@@H](CC(C)C)C(=O)N[C@H](C(=O)NCC(=O)N[C@@H](CC(=O)NCCCOCCOCCOCCCNC(=O)CC[C@H](NC(=O)CCCCCCCCCCCCCCCCC(=O)O)C(=O)O)C(=O)O)CSCC(=O)N[C@@H](Cc2ccc(O)cc2)C(=O)N(C)[C@@H](C)C(=O)N[C@@H](CC(N)=O)C(=O)N2CCC[C@H]2C(=O)N[C@@H](CN)C(=O)N[C@@H](CC(C)C)C(=O)N2C[C@H](O)C[C@H]2C(=O)N[C@@H](Cc2c[nH]c3ccccc23)C(=O)N[C@@H](CCN)C(=O)N[C@@H](Cc2cn(CC(=O)OC)c3ccccc23)C(=O)N1C [Example 9] ({CH2CO}-Y[NMeA]NP[Dap]L[Hyp]W[Dab][Trp(1-CH2CO2Me)][NMeNle][NMeNle]LCGD(X3)-OH; thioether N-14) | – | 0.3 to 1 |
| CCCC[C@H]1C(=O)N(C)[C@@H](CCCC)C(=O)N[C@@H](CC(C)C)C(=O)N[C@H](C(=O)NCC(=O)N[C@@H](CC(=O)NCCCOCCOCCOCCCNC(=O)CC[C@H](NC(=O)CCCCCCCCCCCCCCC(=O)O)C(=O)O)C(=O)O)CSCC(=O)N[C@@H](Cc2ccc(O)cc2)C(=O)N(C)[C@@H](C)C(=O)N[C@@H](CC(N)=O)C(=O)N2CCC[C@H]2C(=O)N[C@@H](CN)C(=O)N[C@@H](CC(C)C)C(=O)N2C[C@H](O)C[C@H]2C(=O)N[C@@H](Cc2c[nH]c3ccccc23)C(=O)N[C@@H](CCN)C(=O)N[C@@H](Cc2cn(CC(=O)O)c3ncccc23)C(=O)N1C [Example 19] ({CH2CO}-Y[NMeA]NP[Dap]L[Hyp]W[Dab][Trp(7-aza,1-CH2COOH)][NMeNle][NMeNle]LCGD(X1)-OH; thioether N-14) | – | 1.1 to 9 |
| CCCC[C@H]1C(=O)N(C)[C@@H](CCCC)C(=O)N[C@@H](CC(C)C)C(=O)N[C@H](C(=O)N[C@@H](Cc2cn(CCOCCOCCOCCOCCOCCOCCOCCOCCOCCOCCOCCNC(=O)CC[C@H](NC(=O)CCCCCCCCCCCCCCCCC(=O)O)C(=O)O)nn2)C(=O)O)CSCC(=O)N[C@@H](Cc2ccc(O)cc2)C(=O)N(C)[C@@H](C)C(=O)N[C@@H](CC(N)=O)C(=O)N2CCC[C@H]2C(=O)N[C@@H](CN)C(=O)N[C@@H](CC(C)C)C(=O)N2C[C@H](O)C[C@H]2C(=O)N[C@@H](Cc2c[nH]c3ccccc23)C(=O)N[C@@H](CCN)C(=O)N[C@@H](Cc2cn(CC(=O)O)c3cccnc23)C(=O)N1C [Example 26] | – | 1.1 to 9 |
| CCCC[C@H]1C(=O)N(C)[C@@H](CCCC)C(=O)N[C@@H](CC(C)C)C(=O)N[C@H](C(=O)N[C@@H](Cc2cn(CCOCCOCCOCCOCCOCCOCCOCCOCCOCCOCCOCCNC(=O)CC[C@H](NC(=O)CCCCCCCCCCCCCCCCC(=O)O)C(=O)O)nn2)C(=O)O)CSCC(=O)N[C@@H](Cc2ccc(O)cc2)C(=O)N(C)[C@@H](C)C(=O)N[C@@H](CC(N)=O)C(=O)N2CCC[C@H]2C(=O)N[C@@H](CN)C(=O)N[C@@H](CC(C)C)C(=O)N2C[C@H](O)C[C@H]2C(=O)N[C@@H](Cc2c[nH]c3ccccc23)C(=O)N[C@@H](CCN)C(=O)NC(Cc2cn(CC(=O)O)c3ncccc23)C(=O)N1C (stereo partly shown) [Example 25] | – | 10 to 60 |
| CCCC[C@H]1C(=O)N(C)[C@@H](CCCC)C(=O)N[C@@H](CC(C)C)C(=O)N[C@H](C(=O)NCC(=O)N[C@@H](CC(=O)NCCCOCCOCCOCCCNC(=O)CC[C@H](NC(=O)CCCCCCCCCCCCCCC(=O)O)C(=O)O)C(=O)O)CSCC(=O)N[C@@H](Cc2ccc(O)cc2)C(=O)N(C)[C@@H](C)C(=O)N[C@@H](CC(N)=O)C(=O)N2CCC[C@H]2C(=O)N[C@@H](CN)C(=O)N[C@@H](CC(C)C)C(=O)N2C[C@H](O)C[C@H]2C(=O)N[C@@H](Cc2c[nH]c3ccccc23)C(=O)N[C@@H](CCN)C(=O)N[C@@H](Cc2cn(CC(=O)O)c3ccc(OC)cc23)C(=O)N1C [Example 21] ({CH2CO}-Y[NMeA]NP[Dap]L[Hyp]W[Dab][X6][NMeNle][NMeNle]LCGD(X1)-OH; thioether N-14) | – | 1.1 to 9 |
